How the values were obtained:
[1] = biological target: FASN Keto-reductase Domain (hFASN enzyme, full length) (Homo sapiens (Human), UniProt P49327); assay: Fatty Acid Synthase Keto-reductase Domain (FASN KR) Inhibition; type: biochemical; details: NADPH oxidation at 340 nm, ethyl acetoacetate substrate
Experimental: After 20 minutes incubation at room temperature the plate was measured again (T2).
The decrease in absorbance was calculated as (Absorbance before incubation T1)−(Absorbance following incubation T2).
(§1) Raw data generated by the instrument were normalized to % Controlmin values, which were calculated as: % Controlmin=100*(x−mLC)/(mHC−mLC)
(§2) where mLC and mHC were the means of the low control wells and high control wells on the plate, after manual exclusion of outliers. A plot of Controlmin versus test compound concentration was fitted to a 4-parameter logistic curve using a non-linear least squares regression method.

[2] = biological target: hFASN enzyme (full length) (Homo sapiens (Human), UniProt P49327); assay: Fatty Acid Synthase (FASN) Inhibition Scintillation Proximity Assay; type: biochemical; details: 3H-acetyl-CoA and malonyl-CoA substrates, SPA, mean if tested more than once
Sequence of hFASN enzyme (full length) (P49327 whole entry, the tested form may be a part): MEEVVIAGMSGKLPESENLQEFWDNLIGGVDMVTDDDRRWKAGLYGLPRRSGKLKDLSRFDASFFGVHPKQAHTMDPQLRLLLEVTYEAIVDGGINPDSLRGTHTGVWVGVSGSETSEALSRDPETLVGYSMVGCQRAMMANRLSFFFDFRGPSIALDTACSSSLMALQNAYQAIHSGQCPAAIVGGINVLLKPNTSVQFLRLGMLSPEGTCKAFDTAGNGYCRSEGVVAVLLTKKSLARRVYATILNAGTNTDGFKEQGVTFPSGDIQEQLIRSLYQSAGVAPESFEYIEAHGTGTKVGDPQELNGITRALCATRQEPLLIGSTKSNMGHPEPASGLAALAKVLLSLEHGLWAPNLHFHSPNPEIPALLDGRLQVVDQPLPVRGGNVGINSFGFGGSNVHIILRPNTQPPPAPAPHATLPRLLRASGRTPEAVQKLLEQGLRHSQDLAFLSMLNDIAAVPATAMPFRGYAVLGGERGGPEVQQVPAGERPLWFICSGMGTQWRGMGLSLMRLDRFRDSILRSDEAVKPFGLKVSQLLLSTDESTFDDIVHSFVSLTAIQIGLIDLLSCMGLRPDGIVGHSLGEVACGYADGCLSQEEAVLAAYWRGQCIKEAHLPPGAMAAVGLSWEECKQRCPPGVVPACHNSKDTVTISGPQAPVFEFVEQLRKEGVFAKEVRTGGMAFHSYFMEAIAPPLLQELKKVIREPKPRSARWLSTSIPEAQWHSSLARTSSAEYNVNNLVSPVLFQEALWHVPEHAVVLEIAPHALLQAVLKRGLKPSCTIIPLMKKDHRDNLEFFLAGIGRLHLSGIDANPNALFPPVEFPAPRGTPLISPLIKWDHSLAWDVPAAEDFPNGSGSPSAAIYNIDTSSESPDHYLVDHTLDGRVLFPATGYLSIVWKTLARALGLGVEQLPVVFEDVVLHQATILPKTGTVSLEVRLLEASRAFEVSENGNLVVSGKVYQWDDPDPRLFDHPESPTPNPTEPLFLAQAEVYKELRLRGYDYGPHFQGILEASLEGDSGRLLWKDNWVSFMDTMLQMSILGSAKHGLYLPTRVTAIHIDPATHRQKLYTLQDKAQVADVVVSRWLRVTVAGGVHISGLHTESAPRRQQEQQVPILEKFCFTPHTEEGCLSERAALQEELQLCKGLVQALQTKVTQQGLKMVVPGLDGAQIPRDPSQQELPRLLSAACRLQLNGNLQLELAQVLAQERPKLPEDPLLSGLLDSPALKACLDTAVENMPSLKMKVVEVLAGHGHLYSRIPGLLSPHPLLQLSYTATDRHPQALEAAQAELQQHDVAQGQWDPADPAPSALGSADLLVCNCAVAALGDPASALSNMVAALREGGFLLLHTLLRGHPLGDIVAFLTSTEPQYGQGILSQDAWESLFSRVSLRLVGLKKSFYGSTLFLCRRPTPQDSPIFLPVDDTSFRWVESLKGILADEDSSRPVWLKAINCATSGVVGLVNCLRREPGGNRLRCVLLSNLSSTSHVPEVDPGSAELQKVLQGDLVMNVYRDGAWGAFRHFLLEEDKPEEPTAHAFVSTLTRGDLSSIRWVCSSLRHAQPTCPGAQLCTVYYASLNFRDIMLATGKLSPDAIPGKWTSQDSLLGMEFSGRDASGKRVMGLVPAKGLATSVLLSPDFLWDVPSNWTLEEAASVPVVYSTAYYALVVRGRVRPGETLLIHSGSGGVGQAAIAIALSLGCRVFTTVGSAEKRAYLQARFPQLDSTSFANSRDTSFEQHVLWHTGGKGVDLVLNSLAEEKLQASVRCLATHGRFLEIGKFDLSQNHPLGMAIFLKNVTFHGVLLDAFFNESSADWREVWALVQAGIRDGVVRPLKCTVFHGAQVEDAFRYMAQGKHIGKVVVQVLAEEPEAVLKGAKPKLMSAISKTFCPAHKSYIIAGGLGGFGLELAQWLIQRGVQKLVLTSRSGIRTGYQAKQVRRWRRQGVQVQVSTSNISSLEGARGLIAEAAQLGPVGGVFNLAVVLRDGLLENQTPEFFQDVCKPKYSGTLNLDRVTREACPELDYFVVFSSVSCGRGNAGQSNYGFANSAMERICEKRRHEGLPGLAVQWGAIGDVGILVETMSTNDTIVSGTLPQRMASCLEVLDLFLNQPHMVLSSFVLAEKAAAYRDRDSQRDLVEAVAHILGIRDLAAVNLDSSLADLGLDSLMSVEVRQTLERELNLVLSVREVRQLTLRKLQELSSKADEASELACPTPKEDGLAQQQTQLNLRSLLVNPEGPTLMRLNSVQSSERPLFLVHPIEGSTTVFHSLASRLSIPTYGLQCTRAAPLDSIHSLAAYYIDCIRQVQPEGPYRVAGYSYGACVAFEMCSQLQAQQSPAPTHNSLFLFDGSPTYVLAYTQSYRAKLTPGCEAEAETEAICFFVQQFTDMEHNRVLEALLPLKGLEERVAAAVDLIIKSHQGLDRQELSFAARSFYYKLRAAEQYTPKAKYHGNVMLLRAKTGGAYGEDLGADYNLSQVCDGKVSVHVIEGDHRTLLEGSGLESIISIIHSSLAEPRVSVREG
Experimental: In this assay, inhibition of FASN activity is measured using ^3H-acetyl-CoA and malonyl-CoA as substrates. ^3H-Acetyl CoA is converted to ^3H-palmitate through a series of reactions by the FASN protein, which contains 7 functional domains and carries out 7 enzymatic reactions to ultimately produce ^3H-palmitate. The assay principle is based upon the fact that ^3H-acetyl-CoA is hydrophilic and the end product, ^3H-palmitate is hydrophobic.
10 μL assay buffer (100 mM KH2PO4 pH 7.5, 1 mM DTT) (20 μL in blanks) was added to a 384-well white Opti Plate plate (Perkin Elmer). 0.9 μL test compound (at concentrations of 30 μM, 10 μM, 3 μM, 1 μM, 0.30 μM, 0.10 μM, 0.03 μM and 0.01 μM)/DMSO and 10 μL hFASN enzyme (full length, 300 ng, purified in house) or 10 μL assay buffer was added to the wells. […] The reaction was stopped by adding 20 μL Streptavidin coupled imaging beads (25 mg/ml). After incubation for 30 minutes at room temperature in the dark, the 384 well plate was centrifuged at 1500 rpm for 3 minutes and was measured after at least 24 hrs by the LEADseeker™, measuring emission using a 610±20 nm pass filter.
as §1, §2

Sequence of FASN Keto-reductase Domain (hFASN enzyme, full length) (P49327 whole entry, the tested form may be a part): as above

Row | Compound | FASN Keto-reductase Domain pIC50 [1] | Human FASN pIC50 [2]
1 | CC1(C)N=C(c2ccc(-c3ccc4cnccc4c3)cc2)N(C[C@@H]2CCN(C(=O)C3CC3)C2)C1=O [Compound 28, (R)-1-((1-(cyclopropanecarbonyl)pyrrolidin-3-yl)methyl)-2-(4-(isoquinolin-6-yl)phenyl)-4,4-dimethyl-1H-imidazol-5(4H)-one] | 7.14 | 7.23
2 | CC1(C)N=C(c2ccc(-c3ccc4cc(F)ccc4c3)cc2)N(CC2CN(C(=O)C3CC3)C2)C1=O [Compound 29, 1-((1-(cyclopropanecarbonyl)azetidin-3-yl)methyl)-2-(4-(6-fluoronaphthalen-2-yl)phenyl)-4,4-dimethyl-1H-imidazol-5(4H)-one] | 6.62 | 7.02
3 | CC1(C)N=C(c2ccc(-c3ccc4cc(F)ccc4c3)cc2)N(C[C@@H]2CCN(C(=O)C3CC3)C2)C1=O [Compound 30, (R)-1((1-(cyclopropanecarbonyl)pyrrolidin-3-yl)methyl)-2-(4-(6-fluoronaphthalen-2-yl)phenyl)-4,4-dimethyl-1H-imidazol-5(4H)-one] | 7.17 | 7.26
4 | CC1(C)N=C(c2ccc(-c3cccc4ncccc34)cc2)N(C[C@@H]2CCN(C(=O)C3CC3)C2)C1=O [Compound 31, (R)-1-((1-(cyclopropanecarbonyl)pyrrolidin-3-yl)methyl)-4,4-dimethyl-2-(4-(quinolin-5-yl)phenyl)-1H-imidazol-5(4H)-one] | 6.33 | 6.72
5 | Cn1ncc2cc(-c3ccc(C4=NC(C)(C)C(=O)N4CC4CN(C(=O)C5CC5)C4)c(F)c3)ccc21 [Compound 32, 1-((1-(cyclopropanecarbonyl)azetidin-3-yl)methyl)-2-(2-fluoro-4-(1-methyl-1H-indazol-5-yl)phenyl)-4,4-dimethyl-1H-imidazol-5(4H)-one] | 5.86 | 6.29
6 | Cn1cc(-c2ccc(-c3ccc(C4=NC(C)(C)C(=O)N4CC4CN(C(=O)C5CC5)C4)c(F)c3)cc2)cn1 [Compound 33, 1-((1-(cyclopropanecarbonyl)azetidin-3-yl)methyl)-2-(3-fluoro-4′-(1-methyl-1H-pyrazol-4-yl)-[1,1′-biphenyl]-4-yl)-4,4-dimethyl-1H-imidazol-5(4H)-one] | 6.38 | 6.74
7 | CC1(C)N=C(c2ccc(-c3ccc4cccnc4c3)cc2F)N(CC2CN(C(=O)C3CC3)C2)C1=O [Compound 39, 1-((1-(cyclopropanecarbonyl)azetidin-3-yl)methyl)-2-(2-fluoro-4-(quinolin-7-yl)phenyl)-4,4-dimethyl-1H-imidazol-5(4H)-one] | 6.81 | 7.05
8 | CC1(C)N=C(c2ccc(-c3ccc4cccc(F)c4c3)cc2)N(CC2CN(C(=O)C3CC3)C2)C1=O [Compound 40, 1-((1-(cyclopropanecarbonyl)azetidin-3-yl)methyl)-2-(4-(8-fluoronaphthalen-2-yl)phenyl)-4,4-dimethyl-1H-imidazol-5(4H)-one] | 6.46 | 6.75
9 | CC1(C)N=C(c2ccc(-c3ccc4cccc(F)c4c3)cc2)N(C[C@@H]2CCN(C(=O)C3CC3)C2)C1=O [Compound 41, (R)-1-((1-(cyclopropanecarbonyl)pyrrolidin-3-yl)methyl)-2-(4-(8-fluoronaphthalen-2-yl)phenyl)-4,4-dimethyl-1H-imidazol-5(4H)-one] | 7.13 | 7.34
10 | CC1(C)N=C(c2ccc(-c3ccc4cncnc4c3)cc2)N(C[C@@H]2CCN(C(=O)C3CC3)C2)C1=O [Compound 42, (R)-1-((1-(cyclopropanecarbonyl)pyrrolidin-3-yl)methyl)-4,4-dimethyl-2-(4-(quinazolin-7-yl)phenyl)-1H-imidazol-5(4H)-one] | 6.32 | 6.65
11 | CC1(C)N=C(c2ccc(-c3ccc4cncnc4c3)cc2F)N(C[C@@H]2CCN(C(=O)C3CC3)C2)C1=O [Compound 44, (R)-1-((1-(cyclopropanecarbonyl)pyrrolidin-3-yl)methyl)-2-(2-fluoro-4-(quinazolin-7-yl)phenyl)-4,4-dimethyl-1H-imidazol-5(4H)-one] | 6.65 | 6.79
12 | Cn1cc(-c2ccc(-c3ccc(C4=NC(C)(C)C(=O)N4C[C@@H]4CCN(C(=O)C5CC5)C4)c(F)c3)cc2)cn1 [Compound 45, (R)-1-((1-(cyclopropanecarbonyl)pyrrolidin-3-yl)methyl)-2-(3-fluoro-4-(1-methyl-1H-pyrazol-4-yl)-[1,1′-biphenyl]-4-yl)-4,4-dimethyl-1H-imidazol-5(4H)-one] | 6.95 | 7.20
13 | CC1(C)N=C(c2ccc(-c3ccc(-c4ccncc4)cc3)cc2F)N(C[C@@H]2CCN(C(=O)C3CC3)C2)C1=O [Compound 46, (R)-1-((1-(cyclopropanecarbonyl)pyrrolidin-3-yl)methyl)-2-(3-fluoro-4′-(pyridin-4-yl)-[1,1′-biphenyl]-4-yl)-4,4-dimethyl-1H-imidazol-5(4H)-one] | 6.90 | 7.28
14 | CC1(C)N=C(c2ccc(-c3cccc4ncccc34)cc2F)N(C[C@@H]2CCN(C(=O)C3CC3)C2)C1=O [Compound 47, (R)-1-((1-(cyclopropanecarbonyl)pyrrolidin-3-yl)methyl)-2-(2-fluoro-4-(quinolin-5-yl)phenyl)-4,4-dimethyl-1H-imidazol-5(4H)-one] | 6.52 | 6.78
15 | CC1(C)N=C(c2ccc(-c3ccc4cccnc4c3)cc2F)N(C[C@@H]2CCN(C(=O)C3CC3)C2)C1=O [Compound 49, (R)-1-((1-(cyclopropanecarbonyl)pyrrolidin-3-yl)methyl)-2-(2-fluoro-4-(quinolin-7-yl)phenyl)-4,4-dimethyl-1H-imidazol-5(4H)-one] | 7.20 | 7.34
16 | CC1(C)N=C(c2ccc(-c3nc4ccccc4o3)cc2F)N(CC2CN(C(=O)C3CC3)C2)C1=O [Compound 52, 2-(4-(benzo[d]oxazol-2-yl)-2-fluorophenyl)-1-((1-(cyclopropanecarbonyl)azetidin-3-yl)methyl)-4,4-dimethyl-1H-imidazol-5(4H)-one] | 5.77 | 6.25
17 | CC1(C)N=C(c2ccc(-c3ccc4cc(F)ccc4c3)cc2F)N(CC2CN(C(=O)C3CC3)C2)C1=O [Compound 54, 1-((1-(cyclopropanecarbonyl)azetidin-3-yl)methyl)-2-(2-fluoro-4-(6-fluoronaphthalen-2-yl)phenyl)-4,4-dimethyl-1H-imidazol-5(4H)-one] | 6.55 | 7.55
18 | CC1(C)N=C(c2ccc(-c3ccc4cccc(F)c4c3)cc2F)N(CC2CN(C(=O)C3CC3)C2)C1=O [Compound 55, 1-((1-(cyclopropanecarbonyl)azetidin-3-yl)methyl)-2-(2-fluoro-4-(8-fluoronaphthalen-2-yl)phenyl)-4,4-dimethyl-1H-imidazol-5(4H)-one] | 6.60 | 7.46
19 | CC1(C)N=C(c2ccc(-c3ccc4cnccc4c3)cc2F)N(CC2CN(C(=O)C3CC3)C2)C1=O [Compound 56, 1-((1-(cyclopropanecarbonyl)azetidin-3-yl)methyl)-2-(2-fluoro-4-(isoquinolin-6-yl)phenyl)-4,4-dimethyl-1H-imidazol-5(4H)-one] | 6.33 | 7.17
20 | CC1(C)N=C(c2ccc(-c3n[nH]c4ccccc34)cc2F)N(C[C@@H]2CCN(C(=O)C3CC3)C2)C1=O [Compound 57, (R)-1-((1-(cyclopropanecarbonyl)pyrrolidin-3-yl)methyl)-2-(2-fluoro-4-(1H-indazol-3-yl)phenyl)-4,4-dimethyl-1H-imidazol-5(4H)-one] | 5.56 | 6.48
21 | CC1(C)N=C(c2ccc(-c3c[nH]c4ccccc34)cc2F)N(CC2CN(C(=O)C3CC3)C2)C1=O [Compound 62, 1-((1-(cyclopropanecarbonyl)azetidin-3-yl)methyl)-2-(2-fluoro-4-(1H-indol-3-yl)phenyl)-4,4-dimethyl-1H-imidazol-5(4H)-one] | 6.26 | 6.69
22 | CC1(C)N=C(c2ccc(-c3c[nH]c4ccccc34)cc2F)N(C[C@@H]2CCN(C(=O)C3CC3)C2)C1=O [Compound 63, (R)-1-((1-(cyclopropanecarbonyl)pyrrolidin-3-yl)methyl)-2-(2-fluoro-4-(1H-indol-3-yl)phenyl)-4,4-dimethyl-1H-imidazol-5(4H)-one] | 6.73 | 7.16

Reference: patent publication US9718813B2, “Imidazolin-5-one derivative useful as FASN inhibitors for the treatment of cancer” (Janssen Pharmaceutica, NV, priority 2013, dated 2017)
